Measured values as given in the Bradley open melting point set (2014).
Where “and” joins values, the source holds several entries; their conditions need not be identical. Equal values may be shown once.

Row | SMILES | melting point
1 | CCCSc1ccc2[nH]c(NC(=O)OC)nc2c1 [albendazole] | 209 °C
2 | C=CCN1C(=O)C(CC(C)C)NC1=S (stereo unspecified) [albutoin] | 210 °C
3 | C=CCO [allyl alcohol] | -129 °C
4 | C=CCBr [allyl bromide] | -119 °C
5 | C=CCCl [allyl chloride] | -135 °C
6 | C=CCI [allyl iodide] | -99 °C
7 | C=CCN=C=S [allyl isothiocyanate] | -80 °C
8 | BrC(Br)c1ccccc1C(Br)Br [alpha,alpha,alpha',alpha'-tetrabromo-o-xylene] | 116 °C
9 | O=C(O)C(Sc1ccccc1)c1ccccc1 (stereo not drawn) [alpha-(phenylthio)phenylacetic acid] | 100 °C
10 | O=C[C@@H](O)[C@@H](O)[C@@H](O)[C@H](O)CO [alpha-D-talose] | 134 °C
11 | O=c1cc(-c2ccccc2)oc2c1ccc1ccccc12 [alpha-naphthoflavone] | 158 °C
12 | O=C(O)/C(=C/c1ccccc1)c1ccccc1 [alpha-phenylcinnamic acid] | 173 °C
13 | NS(=O)(=O)Cc1ccccc1 [alpha-toluenesulfonamide] | 103 °C
14 | C=CCc1ccccc1OCC(O)CNC(C)C (stereo unspecified) [alprenolol] | 109 °C
15 | Nc1ccc2ccc3cccc4ccc1c2c34 [aminopyrene] | 116 °C
16 | CCC1(CCC(C)C)C(=O)NC(=O)NC1=O [amobarbital] | 157 °C
17 | Nc1ccc(OCCCCCN2C(=O)c3ccccc3C2=O)cc1 [amphotalide] | 113 °C
18 | CC(=O)OC1CCC2C3CCC4CC=CCC4(C)C3CCC12C (stereo unspecified) [androst-2-en-17-yl acetate] | 94 °C
19 | CC12CCC3C(C(=O)CC4CC(=O)CCC43C)C1CCC2=O (stereo unspecified) [androstane-3,7,17-trione] | 232 °C
20 | CC12CCC3C(CCC4CC(=O)CCC43C)C1CCC2=O (stereo unspecified) [androstane-3,17-dione] | 132 °C
21 | Nc1ccccc1 [aniline] [listing 1 of 2 here] | -6 °C
22 | Nc1ccccc1 [aniline] [listing 2 of 2 here] | -6 °C (4×) and -6.2 °C (2×)
23 | Nc1ccccc1C(=O)OCC=Cc1ccccc1 [anthranilic acid cinnamyl ester] | 65 °C
24 | O=C1c2ccccc2Cc2ccccc21 [anthrone] | 157 °C
25 | CCCC1C(=O)N2C(N(C)C)=Nc3ccc(C)cc3N2C1=O (stereo unspecified) [apazone] | 228 °C
26 | C=CCC1(C(C)C)C(=O)NC(=O)NC1=O [aprobarbital] | 143 °C

Row | SMILES | melting point
27 | CCNc1nc(Cl)nc(NC(C)C)n1 [atrazine] | 175 °C and 177 °C
28 | N(=N/c1ccccc1)c2ccccc2 [azobenzene] | 69 °C
29 | O=C(O)C=Cc1ccco1 [b-2-Furylacrylic Acid] | 133 °C
30 | ClCCOc1ccccc1 [b-chlorophenetole] | 28 °C
31 | CCC1(CC)C(=O)NC(=O)NC1=O [barbital] | 190 °C
32 | O=C(CCCN1CCC(n2c(=O)[nH]c3ccccc32)CC1)c1ccc(F)cc1 [benperidol] [listing 1 of 2 here] | 171 °C
33 | O=C(CCCN1CCC(n2c(=O)[nH]c3ccccc32)CC1)c1ccc(F)cc1 [benperidol] [listing 2 of 2 here] | 170 °C
34 | O=Cc1ccccc1 [benzaldehyde] | -56.5 °C and -55.6 °C
35 | O=C(NCCCCc1ccccc1)c1cc([N+](=O)[O-])cc([N+](=O)[O-])c1 [benzamide, 3,5-dinitro-N-(4-phenylbutyl)-] | 166 °C
36 | CCCCc1ccc(NC(=O)c2ccc(OC)cc2)cc1 [benzamide, N-(4-butylphenyl)-4-methoxy-] | 147 °C
37 | O=S(=O)(Cl)c1ccccc1 [benzenesulfonyl chloride] | 15 °C
38 | NNS(=O)(=O)c1ccccc1 [benzenesulfonyl hydrazide] | 103 °C
39 | O=C1CCC(c2ccccc2)(C2CCN(Cc3ccccc3)CC2)C(=O)N1 (stereo unspecified) [benzetimide] | 156 °C
40 | NC(c1ccccc1)c1ccccc1 [benzhydrylamine] | 12 °C
41 | O=C(C(=O)c1ccccc1)c1ccccc1 [benzil] | 95 °C
42 | c1ccc2[nH]cnc2c1 [benzimidazole] | 170 °C and 172 °C
43 | c1ccc2c(c1)cc1ccc3cccc4ccc2c1c34 [benzo(a)pyrene] | 179 °C
44 | c1ccc2c(c1)cc1ccc3cccc4ccc2c1c34 [benzo[a]pyrene] | 176 °C and 179 °C
45 | O=C(O)c1cc2ccccc2o1 [benzo[b]furan-2-carboxylic acid] | 194 °C
46 | OB(O)c1cc2ccccc2s1 [benzo[b]thiophene-2-boronic acid] | 255 °C
47 | [O-][n+]1onc2ccccc21 [benzofuroxan] | 69 °C
48 | O=C(O)c1ccccc1 [benzoic acid] | 122 °C
49 | O=C(O)c1ccccc1 [benzoic_acid] | 123 °C
50 | OC(c1ccccc1)(c1ccccc1)C(O)(c1ccccc1)c1ccccc1 [benzopinacol] | 177 °C
51 | O=C(Cl)c1nc2ccccc2s1 [benzothiazole-2-carbonyl chloride] | 114 °C
